# Laboratory results taken from patent US20210346663A1, “METHODS FOR IMPROVING DRUG EFFICACY” (Nuvaira, Inc., priority 2012, published 2021).
# Test: Pulmonary function after vagus nerve disruption followed by drug administration in patients with obstructive lung disease
# Assay type: in vivo
# Conditions: drug given after nerve activity-modulating treatment
# Excerpt: For two treatments with similar mechanisms of action (e.g., vagus nerve disruption that eliminates or reduces acetylcholine production and pharmacological inhibition of acetylcholine production or release), one would expect that the combination of such treatments would result in less of an improvement than the combination of two treatments with different/complementary mechanisms of action.
structure (smiles),measurement,value
CC(C)[N+]1(C)[C@@H]2CC[C@H]1C[C@@H](OC(=O)C(CO)c1ccccc1)C2 (stereo partly shown) [ipratropium bromide],effect on lung functions of administration after vagus nerve disruption,additive effect
